Columns and labels:
Format in all cases: in vivo
[1] = system: Echinochloa oryzacola Vasing.; assay: Test Example 2: herbicidal activity, application during weed generation in submerged conditions (symbol A); conditions: Table 23; application herbicide amount 320 g/ha; grade 0-5 by criteria of Test Example 1
Procedure, shortened: (§1)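 Visual herbicidal ratings, taken three weeks after dosing, reflect post-emergence water-surface application to seedlings at one to two leaves. Conditions: co-sown weeds in alluvial soil flooded to 4 cm, greenhouse held at 25° C. to 30° C.; compound given as water-diluted emulsion at a fixed herbicide amount.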

[2] = system: wheat; assay: Test Example 4: effect on crop by soil treatment (symbol e); conditions: for e: wheat, effect on crop grade: application herbicide amount 320 g/ha
Procedure, shortened: (§2)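 Crop seeds, among them rice, wheat, beet and rapeseed, were sown in sterilized diluvial soil and covered with about 1.5 cm of soil. Boxes were kept in a greenhouse at 25° C. to 30° C. for plant growth.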

[3] = system: wheat; assay: Test Example 5: effect on crop by foliage application, plastic box (symbol e); conditions: 320 g/ha, 3 weeks after application
Procedure, shortened: (§3)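 Soil: sterilized diluvial. Container: plastic box, 21 × 13 cm, 7 cm deep. Sowing: spot-like, ~1.5 cm cover. Growth: greenhouse, 25° C. to 30° C.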

[4] = system: rapeseed; assay: Test Example 5: effect on crop by foliage application, plastic box (symbol g); conditions: 320 g/ha, 3 weeks after application
Procedure, shortened: as §3

[5] = system: Lolium multiflorum Lam.; assay: Test Example 4: herbicidal effect by soil treatment (symbol K)
Procedure, shortened: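 Seeds were sown in sterilized diluvial soil, covered with about 1.5 cm of soil, and the soil surface was sprayed with a water-diluted emulsion of the compound at a predetermined rate. Plants grew in a greenhouse at 25° C. to 30° C.; effects were scored visually 3 weeks after application.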

[6] = system: Scirpus juncoides; assay: Test Example 1: herbicidal activity, application before weed generation in submerged conditions (symbol B); conditions: application herbicide amount 320 g/ha
Procedure, shortened: (§4)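 Ratings (5: ≥90%, near complete withering; 4: 70–<90%; 3: 40–<70%; 2: 20–<40%; 1: 5–<20%; 0: ≤5%) were assigned 3 weeks after the diluted emulsion was applied to the water surface of freshly sown, submerged pots.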

[7] = system: beet; assay: Test Example 4: effect on crop by soil treatment (symbol f); conditions: for f: beet, effect on crop grade: application herbicide amount 320 g/ha
Procedure, shortened: as §2

[8] = system: Monochoria vaginalis; assay: Test Example 2: herbicidal activity, application during weed generation in submerged conditions (symbol C); conditions: Table 23; application herbicide amount 320 g/ha; grade 0-5 by criteria of Test Example 1
Procedure, shortened: as §1

[9] = system: soybean; assay: Test Example 4: effect on crop by soil treatment (symbol d); conditions: for d: soybean, effect on crop grade: application herbicide amount 320 g/ha
Procedure, shortened: as §2

[10] = system: Avena fatua; assay: Test Example 5: herbicidal effect by foliage application, plastic box (symbol I); conditions: 320 g/ha, 3 weeks after application
Procedure, shortened: (§5)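 Effect is rated 3 weeks after a foliar spray of water-diluted emulsion concentrate at a predetermined herbicide amount. Plants had grown 14 days in a 25° C. to 30° C. greenhouse from seed in sterilized diluvial soil.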

[11] = system: Monochoria vaginalis; assay: Test Example 1: herbicidal activity, application before weed generation in submerged conditions (symbol C); conditions: application herbicide amount 320 g/ha
Procedure, shortened: as §4

[12] = system: Amaranthus retroflexus; assay: Test Example 5: herbicidal effect by foliage application, plastic box (symbol N); conditions: 320 g/ha, 3 weeks after application
Procedure, shortened: as §5

[13] = system: directly sowed rice plant; assay: Test Example 3: effect on crop by foliage application, Wagner pot (symbol b); conditions: application herbicide amount 320 g/ha
Procedure, shortened: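 Plants are raised from seed in flooded paddy conditions: water stands 0.1–0.5 cm over alluvial soil, and the pot is kept in a greenhouse at 25–30 °C. Species sown are barnyardgrass (E. crus-galli var. crus-galli), Leptochloa chinensis, Cyperus difformis and rice.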

[14] = system: Veronica persica; assay: Test Example 5: herbicidal effect by foliage application, plastic box (symbol R); conditions: 320 g/ha, 3 weeks after application
Procedure, shortened: as §5

[15] = application herbicide amount 320 g/ha

Structure (SMILES): CCOC(=O)C(C(=O)c1ccccc1)C1CC(O)=C(c2c(C)cc(C)cc2C)C1=O (centres unmarked) [2-008]
- Herbicidal effect grade, A: Echinochloa oryzacola Vasing. [1]: 0 (Herbicidal ratio of 5% or lower (almost no effect))
- e: wheat, effect on crop grade [2]: 0 (Herbicidal ratio of 5% or lower (almost no effect))
- e: wheat, effect on crop grade [3]: 0 (Herbicidal ratio of 5% or lower (almost no effect))
- g: rapeseed, effect on crop grade [4]: 3 (Herbicidal ratio of 40% or higher and lower than 70%)
- K: Lolium multiflorum Lam., herbicidal effect grade [5, 15]: 3 (Herbicidal ratio of 40% or higher and lower than 70%)
- Herbicidal effect grade, B: Scirpus juncoides [6]: 0 (Herbicidal ratio of 5% or lower (almost no effect))
- f: beet, effect on crop grade [7]: 0 (Herbicidal ratio of 5% or lower (almost no effect))
- Herbicidal effect grade, C: Monochoria vaginalis [8]: 0 (Herbicidal ratio of 5% or lower (almost no effect))
- d: soybean, effect on crop grade [9]: 0 (Herbicidal ratio of 5% or lower (almost no effect))
- I: Avena fatua, herbicidal effect grade [10]: 0 (Herbicidal ratio of 5% or lower (almost no effect))
- Herbicidal effect grade, C: Monochoria vaginalis [11]: 0 (Herbicidal ratio of 5% or lower (almost no effect))
- N: Amaranthus retroflexus, herbicidal effect grade [12]: 1 (Herbicidal ratio of 5% or higher and lower than 20%)
- effect on crop b (directly sowed rice plant), grade 0-5 [13]: 0 (Herbicidal ratio of 5% or lower (almost no effect))

Structure (SMILES): CCC(=O)CCC1CC(OC)=C(c2c(C)cc(C)cc2C)C1=O (centres unmarked) [5-002]
- Herbicidal effect grade, A: Echinochloa oryzacola Vasing. [1]: 0 (Herbicidal ratio of 5% or lower (almost no effect))
- e: wheat, effect on crop grade [2]: 0 (Herbicidal ratio of 5% or lower (almost no effect))
- e: wheat, effect on crop grade [3]: 0 (Herbicidal ratio of 5% or lower (almost no effect))
- K: Lolium multiflorum Lam., herbicidal effect grade [5, 15]: 0 (Herbicidal ratio of 5% or lower (almost no effect))
- Herbicidal effect grade, B: Scirpus juncoides [6]: 0 (Herbicidal ratio of 5% or lower (almost no effect))
- f: beet, effect on crop grade [7]: 0 (Herbicidal ratio of 5% or lower (almost no effect))
- Herbicidal effect grade, C: Monochoria vaginalis [8]: 0 (Herbicidal ratio of 5% or lower (almost no effect))
- d: soybean, effect on crop grade [9]: 0 (Herbicidal ratio of 5% or lower (almost no effect))
- I: Avena fatua, herbicidal effect grade [10]: 0 (Herbicidal ratio of 5% or lower (almost no effect))
- Herbicidal effect grade, C: Monochoria vaginalis [11]: 0 (Herbicidal ratio of 5% or lower (almost no effect))
- N: Amaranthus retroflexus, herbicidal effect grade [12]: 0 (Herbicidal ratio of 5% or lower (almost no effect))
- effect on crop b (directly sowed rice plant), grade 0-5 [13]: 0 (Herbicidal ratio of 5% or lower (almost no effect))

Structure (SMILES): CCc1cc(C)cc(C)c1C1=C(O)CC(CC(C)=NOC)C1=O (centres unmarked) [6-007]
- Herbicidal effect grade, A: Echinochloa oryzacola Vasing. [1]: 5 (Herbicidal ratio of 90% or more (almost completely withered))
- e: wheat, effect on crop grade [2]: 5 (Herbicidal ratio of 90% or more (almost completely withered))
- e: wheat, effect on crop grade [3]: 5 (Herbicidal ratio of 90% or more (almost completely withered))
- K: Lolium multiflorum Lam., herbicidal effect grade [5, 15]: 5 (Herbicidal ratio of 90% or more (almost completely withered))
- Herbicidal effect grade, B: Scirpus juncoides [6]: 5 (Herbicidal ratio of 90% or more (almost completely withered))
- f: beet, effect on crop grade [7]: 0 (Herbicidal ratio of 5% or lower (almost no effect))
- Herbicidal effect grade, C: Monochoria vaginalis [8]: 2 (Herbicidal ratio of 20% or higher and lower than 40%)
- d: soybean, effect on crop grade [9]: 0 (Herbicidal ratio of 5% or lower (almost no effect))
- I: Avena fatua, herbicidal effect grade [10]: 3 (Herbicidal ratio of 40% or higher and lower than 70%)
- Herbicidal effect grade, C: Monochoria vaginalis [11]: 1 (Herbicidal ratio of 5% or higher and lower than 20%)
- N: Amaranthus retroflexus, herbicidal effect grade [12]: 0 (Herbicidal ratio of 5% or lower (almost no effect))
- effect on crop b (directly sowed rice plant), grade 0-5 [13]: 5 (Herbicidal ratio of 90% or more (almost completely withered))

Structure (SMILES): CCOC(=O)C(C(=O)CC1CC1)C1CC(O)=C(c2c(C)cc(C)cc2C)C1=O (centres unmarked) [2-025]
- e: wheat, effect on crop grade [2]: 0 (Herbicidal ratio of 5% or lower (almost no effect))
- e: wheat, effect on crop grade [3]: 0 (Herbicidal ratio of 5% or lower (almost no effect))
- g: rapeseed, effect on crop grade [4]: 3 (Herbicidal ratio of 40% or higher and lower than 70%)
- K: Lolium multiflorum Lam., herbicidal effect grade [5, 15]: 4 (Herbicidal ratio of 70% or higher and lower than 90%)
- Herbicidal effect grade, B: Scirpus juncoides [6]: 0 (Herbicidal ratio of 5% or lower (almost no effect))
- R: Veronica persica, herbicidal effect grade [14]: 0 (Herbicidal ratio of 5% or lower (almost no effect))
- f: beet, effect on crop grade [7]: 0 (Herbicidal ratio of 5% or lower (almost no effect))
- d: soybean, effect on crop grade [9]: 0 (Herbicidal ratio of 5% or lower (almost no effect))
- I: Avena fatua, herbicidal effect grade [10]: 0 (Herbicidal ratio of 5% or lower (almost no effect))
- Herbicidal effect grade, C: Monochoria vaginalis [11]: 0 (Herbicidal ratio of 5% or lower (almost no effect))
- N: Amaranthus retroflexus, herbicidal effect grade [12]: 0 (Herbicidal ratio of 5% or lower (almost no effect))
- effect on crop b (directly sowed rice plant), grade 0-5 [13]: 4 (Herbicidal ratio of 70% or higher and lower than 90%)

Structure (SMILES): CCC(CCC1CC(O)=C(c2c(C)cc(C)cc2C)C1=O)=NOC (mixture of isomers) [4-001]
- Herbicidal effect grade, A: Echinochloa oryzacola Vasing. [1]: 0 (Herbicidal ratio of 5% or lower (almost no effect))
- e: wheat, effect on crop grade [2]: 0 (Herbicidal ratio of 5% or lower (almost no effect))
- e: wheat, effect on crop grade [3]: 0 (Herbicidal ratio of 5% or lower (almost no effect))
- K: Lolium multiflorum Lam., herbicidal effect grade [5, 15]: 5 (Herbicidal ratio of 90% or more (almost completely withered))
- Herbicidal effect grade, B: Scirpus juncoides [6]: 0 (Herbicidal ratio of 5% or lower (almost no effect))
- f: beet, effect on crop grade [7]: 0 (Herbicidal ratio of 5% or lower (almost no effect))
- Herbicidal effect grade, C: Monochoria vaginalis [8]: 0 (Herbicidal ratio of 5% or lower (almost no effect))
- d: soybean, effect on crop grade [9]: 0 (Herbicidal ratio of 5% or lower (almost no effect))
- I: Avena fatua, herbicidal effect grade [10]: 4 (Herbicidal ratio of 70% or higher and lower than 90%)
- Herbicidal effect grade, C: Monochoria vaginalis [11]: 0 (Herbicidal ratio of 5% or lower (almost no effect))
- N: Amaranthus retroflexus, herbicidal effect grade [12]: 0 (Herbicidal ratio of 5% or lower (almost no effect))
- effect on crop b (directly sowed rice plant), grade 0-5 [13]: 4 (Herbicidal ratio of 70% or higher and lower than 90%)

Structure (SMILES): CON=C(C)CC1CC(OS(=O)(=O)CCCCl)=C(c2c(C)cc(C)cc2C)C1=O (centres unmarked) [1-142]
- Herbicidal effect grade, A: Echinochloa oryzacola Vasing. [1]: 5 (Herbicidal ratio of 90% or more (almost completely withered))
- e: wheat, effect grade on crop ([2]; 320 g/ha): 3 (Herbicidal ratio of 40% or higher and lower than 70%)
- e: wheat, effect on crop (criteria 0-5) [3]: 4 (Herbicidal ratio of 70% or higher and lower than 90%)
- g: rapeseed, effect on crop (criteria 0-5) [4]: 4 (Herbicidal ratio of 70% or higher and lower than 90%)
- K: Lolium multiflorum Lam., herbicidal effect grade ([5]; 320 g/ha): 5 (Herbicidal ratio of 90% or more (almost completely withered))
- Herbicidal effect grade, B: Scirpus juncoides [6]: 5 (Herbicidal ratio of 90% or more (almost completely withered))
- R: Veronica persica, herbicidal effect (criteria 0-5) [14]: 3 (Herbicidal ratio of 40% or higher and lower than 70%)
- f: beet, effect grade on crop ([7]; 320 g/ha): 0 (Herbicidal ratio of 5% or lower (almost no effect))
- d: soybean, effect grade on crop ([9]; 320 g/ha): 0 (Herbicidal ratio of 5% or lower (almost no effect))
- I: Avena fatua, herbicidal effect (criteria 0-5) [10]: 5 (Herbicidal ratio of 90% or more (almost completely withered))
- Herbicidal effect grade, C: Monochoria vaginalis [11]: 2 (Herbicidal ratio of 20% or higher and lower than 40%)
- N: Amaranthus retroflexus, herbicidal effect (criteria 0-5) [12]: 0 (Herbicidal ratio of 5% or lower (almost no effect))
- effect on crop b (directly sowed rice plant), grade 0-5 [13]: 5 (Herbicidal ratio of 90% or more (almost completely withered))

From patent publication US11000033B2, “Ketone or oxime compound, and herbicide” (NISSAN CHEMICAL CORPORATION, priority 2014, dated 2021)
